For data set [1], the system named is decapping activity in HeLa S100 cytoplasmic extract. The data set is described as follows: In vitro decapping assay (release of 7meGDP from cap-labeled RNA, TLC). Type of data set: biochemical, human. To be noted: for effect of competitor RNA on decapping of AU-rich element-containing RNA substrate: FIG. 6; for activation of decapping in human cytoplasmic extract: cold cap analog added to standard S100 extract. As to the method: In one embodiment of a manual procedure, the components are as follows (referred to herein as “standard reaction conditions”): • 1 microliter ^7meGpppG or ^7meGTP competitor (50-500 ng/microliter); • 1 microliter RNA (˜5-200 fmol; labeled at the alpha phosphate of the cap); • 4 microliters S100 extract; and • 4 microliters water.
The mixture is incubated at 30° C. for 30 min; aliquots are then taken at designated time points to follow the kinetics of decapping by visualization of the product of decapping, ^7meGDP, by, for example, thin layer chromatography on a cellulose PEI sheet using a mobile phase of 0.45 M ammonium sulfate. Other means for identifying the decapping product are fully embraced herein.
Decapping assays were performed using conditions adapted from Zhang et al (1999b). 10-50 fmoles of cap-labeled RNAs were incubated with 4 microliters HeLa S100 cytoplasmic extract in a 10 microliter reaction in the presence of CE buffer (50 mM Tris pH 7.9, 30 mM (NH4)2SO4, 1 mM MgCl2) and 20 micromolar cap analog (where indicated). Reaction mixtures were incubated at 30° C. for the times indicated and stopped by the addition of 1 microliter of 0.25 M EDTA. Reaction products were separated and identified by thin layer chromatography on PEI cellulose sheets developed in 450 mM (NH4)2SO4. Quantitation was performed using a Molecular Dynamics Phosphorimager. Twenty micrograms of ^7meGMP and ^7meGDP were routinely spotted on TLC plates along with reaction samples to serve as markers that could be visualized by UV shadowing.

Data set [2] has as its system unidentified 40 kDa species (ARE-specific RNA binding protein). The data set is described as follows: UV cross-linking of ARE-binding proteins with ARE competitor RNA. The arrangement: species or system human. The conditions noted are these: S100 extract. The procedure: (§1) UV cross-linking analysis was performed as described (Wilusz and Shenk, 1988). Briefly, 20-50 fmoles of cap-radiolabeled RNA was incubated in the in vitro decapping assay for 5 min. and then reaction mixtures were irradiated on ice for 10 min. using a 15W germicidal light. RNases A and T1 were added and proteins covalently attached to short radioactive RNA oligomers were analyzed on a 10% acrylamide gel containing SDS. For analysis of UV cross-linked DAN/PARN protein by immunoprecipitation using a polyclonal antibody obtained from M. Wormington (Korner et al., 1998), 400 ul of NET2 buffer (50 mM Tris pH 7.6, 150 mM NaCl, 0.01% NP40) was added to reaction mixtures following RNase treatment and reaction mixtures were centrifuged for 4 min. Pre-cleared samples were incubated on ice with 2-5 microliters of specified rabbit polyclonal antisera for 1 hr. Antigen antibody complexes were collected on protein A-positive Staphylococcus aureus cells, washed five times in RIPA buffer (50 mM Tris, pH 7.6, 150 mM NaCl, 0.1% SDS, 1% NP40, 0.5% deoxycholate), and immunoprecipitated cross-linked proteins were analyzed on a 10 or 15% acrylamide gel containing SDS.

A further data set deals with T1, HuR (Homo sapiens, UniProt Q15717).
T1 construct: endogenous in cells; host or cells: HeLa spinner cells, S100 cytoplasmic extract
T1 sequence (Q15717 whole entry): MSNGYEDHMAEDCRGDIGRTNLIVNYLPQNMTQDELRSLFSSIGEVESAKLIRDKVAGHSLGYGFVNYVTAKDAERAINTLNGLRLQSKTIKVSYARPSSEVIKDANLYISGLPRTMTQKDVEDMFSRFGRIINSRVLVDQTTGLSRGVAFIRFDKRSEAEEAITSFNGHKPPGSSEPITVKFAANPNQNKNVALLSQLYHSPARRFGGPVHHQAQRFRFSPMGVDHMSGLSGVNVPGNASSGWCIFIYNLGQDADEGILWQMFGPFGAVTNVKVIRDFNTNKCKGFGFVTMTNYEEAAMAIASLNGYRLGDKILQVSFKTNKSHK
Described as above. The conditions noted are these: S100 extract. The procedure: as §1

The next data set concerns the target T2, deadenylase DAN/PARN (Homo sapiens, UniProt O95453).
T2 construct: incubated HeLa S100 extracts using cap-labeled GemARE-A60 RNA under decapping conditions; endogenous in cells; host or cells: HeLa spinner cells, S100 cytoplasmic extract
T2 sequence (O95453 1-639): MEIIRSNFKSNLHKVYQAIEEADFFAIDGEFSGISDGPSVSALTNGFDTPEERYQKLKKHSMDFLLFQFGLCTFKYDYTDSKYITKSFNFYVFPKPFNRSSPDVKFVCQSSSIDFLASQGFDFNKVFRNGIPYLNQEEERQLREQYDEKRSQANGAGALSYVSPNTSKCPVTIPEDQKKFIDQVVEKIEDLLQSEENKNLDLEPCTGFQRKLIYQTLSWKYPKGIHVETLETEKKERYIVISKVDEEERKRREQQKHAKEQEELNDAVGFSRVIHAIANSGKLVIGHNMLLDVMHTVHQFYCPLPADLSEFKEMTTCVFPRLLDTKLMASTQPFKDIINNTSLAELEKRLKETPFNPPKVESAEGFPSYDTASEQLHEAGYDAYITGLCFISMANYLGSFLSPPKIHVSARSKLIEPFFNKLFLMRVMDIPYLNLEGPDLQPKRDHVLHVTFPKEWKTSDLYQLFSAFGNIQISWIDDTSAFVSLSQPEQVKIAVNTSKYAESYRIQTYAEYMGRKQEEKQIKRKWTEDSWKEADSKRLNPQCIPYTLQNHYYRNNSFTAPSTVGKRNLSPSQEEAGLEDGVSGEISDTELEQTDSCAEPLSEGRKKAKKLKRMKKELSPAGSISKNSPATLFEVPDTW
The data set is described as follows: UV cross-linking / immunoprecipitation of DAN/PARN. Type of data set: binding. The procedure:
as §1

The target of data set [3] is T3, 24 kDa cap binding protein (eIF4E) (Homo sapiens, UniProt P06730).
T3 construct: endogenous in cells; host or cells: HeLa spinner cells, S100 cytoplasmic extract
T3 sequence (P06730 whole entry): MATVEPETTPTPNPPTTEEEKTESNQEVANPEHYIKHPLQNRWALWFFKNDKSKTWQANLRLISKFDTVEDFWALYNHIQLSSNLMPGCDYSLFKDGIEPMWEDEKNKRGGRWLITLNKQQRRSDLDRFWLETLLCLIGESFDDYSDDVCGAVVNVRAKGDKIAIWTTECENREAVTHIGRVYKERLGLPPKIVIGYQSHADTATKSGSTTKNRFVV
The data set is described as follows: UV cross-linking of cap-labeled RNA to cap-binding proteins. The procedure: as §1

Setting [4] is: 5 micromolar cap analog, FIG. 2D.
[5] abbreviates: titration, GemARE-A0 RNA, FIG. 2D.

Regarding “5′-GGAUUAACUAAUUGAUACCGCGUAUACACGCGG (RNA, backbone not given here) [control competitor RNA]”, in data set [1] (with cap analog), the “effect of competitor RNA on decapping of AU-rich element-containing RNA substrate” value is recorded as “no effect on decapping efficiency”.

With “5′AUUAUUUAUUAUUUAUUUAUUAUUUAUUUAUUUA (RNA, backbone not given here) [ARE competitor RNA]”, in data set [2], the “competition of 40 kDa species cross-linking” value is on record as “competed”. The “substrate dependence of the reduction in decapping efficiency” value in data set [1] (Gem-A0 versus GemARE-A0, FIG. 6B) was “only observed with RNA substrates that contained an AU-rich element”. In addition, the “effect of competitor RNA on decapping of AU-rich element-containing RNA substrate” value in data set [1] (with cap analog) is listed as “significantly reduced decapping”. Moreover, in the data set with HuR, the “competition of HuR cross-linking” value is recorded as “competed”.

For the molecule `Nc1nc2c(ncn2[C@@H]2O[C@H](COP(=O)(O)OP(=O)(O)OP(=O)(O)OC[C@H]3O[C@@H](n4cnc5c(=O)[nH]c(N)nc54)[C@H](O)[C@@H]3O)[C@@H](O)[C@H]2O)c(=O)[nH]1` [GpppG], in data set [1] (HeLa S100, cap-labeled GemARE-A60 RNA, FIG. 2A), the “ability of methylated versus non-methylated cap analogs to activate decapping” value was “the presence of the methyl group on the cap analog was absolutely required to activate decapping”.

Turning to `Cn1c[n+]([C@@H]2O[C@H](COP(=O)([O-])OP(=O)(O)OP(=O)(O)O)[C@@H](O)[C@H]2O)c2nc(N)[nH]c(=O)c21` [^7meGTP], the “activation of decapping in human cytoplasmic extract” value in data set [1] is listed as “activates the human cytoplasmic extract”.

As for `Cn1c[n+]([C@@H]2O[C@H](COP(=O)(O)OP(=O)(O)OP(=O)(O)OC[C@H]3O[C@@H](n4cnc5c(=O)[nH]c(N)nc54)[C@H](O)[C@@H]3O)[C@@H](O)[C@H]2O)c2nc(N)[nH]c(=O)c21` [^7meGpppG], the “full sequestration of DAN/PARN” value at deadenylase DAN/PARN (setting [4]) is given as “not”. Besides, the “competition for cap binding by DAN/PARN” value at deadenylase DAN/PARN (FIG. 2C) was “specifically competed”. For the same molecule, on deadenylase DAN/PARN (FIG. 2D), the “amount required to fully sequester DAN/PARN” value stood at 10 µM. The “activation of decapping of RNA substrates (accumulation of 7meGDP)” value in data set [1] (20 micromolar, 3 independently prepared HeLa cytoplasmic extracts, FIG. 1B) is “activated decapping”. Moreover, the “activation of decapping in human cytoplasmic extract” value in data set [1] is recorded as “activates the human cytoplasmic extract”. In addition, in data set [1] (setting [5]), the “amount of cap analog giving only partial activation of decapping” value worked out at 5 micromolar and the “amount of cap analog required for full activation of decapping” value turned out to be 10 micromolar. Besides, the “sequestration of 24 kDa cap binding protein” value in data set [3] (setting [4]) is “fully sequestered”. Moreover, in data set [3] (increasing amounts, HeLa S100, FIG. 2B), the “competition for cross-linking of 24 kDa protein to cap” value is reported as “specifically competed”.

Take poly(C): the “effect of other homopolymer on decapping” value in data set [1] (all RNA substrates tested, with cap analog, FIG. 4B) was “did not appreciably affect decapping”.

These data come from US6852531B2, “Compositions and methods for reproducing and modulating mammalian messenger RNA decapping” (University of Medicine & Dentistry of NJ, priority 2000, dated 2005).
